Data published in patent publication US20200297725A1, “ALLOSTERIC BCR-ABL PROTEOLYSIS TARGETING CHIMERIC COMPOUNDS” (YALE UNIVERSITY, priority 2019, published 2020).
Entries after “also recorded” stand apart in the source; their conditions may differ. Where two headings read alike, the source gives them in different places. Values belong to the compound of their own block, whether it stands above or below them.

Columns and labels:
[1] = tested on: primary CML CD34+ patient cells; assay: Apoptosis (Annexin V) in primary CML patient cells; type: cell-based, human; details: patient 1; no appreciable difference between PROTAC and diastereomer control
Procedure: Mononuclear cells (MNCs) were isolated from either peripheral blood, bone marrow or leukapheresis samples by Ficoll gradient. MNCs were then treated with ammonium-chloride-potassium (ACK) lysis buffer to remove any residual red blood cells. […] For cell proliferation assays, samples were thawed and cultured in R10. For immunoblot assays, samples were thawed and cultured in IMDM with 40 μg/mL low-density lipoprotein (LDL, Stem Cell), 20% FBS, and 100 μM beta-mercaptaethanol (Sigma).
Sorted samples were recovered overnight in culture in IMDM with 40 μg/mL low-density lipoprotein (LDL, Stem Cell), 20% FBS, and 100 μM beta-mercaptaethanol (Sigma).

[2] = tested on: primary CML CD34+ patient cells; assay: Proliferation of primary CML patient CD34+ cells; type: cell-based, human; details: CD34+ cells from newly diagnosed CML patients
Procedure: (§1) Cell lines and patient samples were exposed to dose ranges of single or combination agents and incubated for 3 days at 37° C., 5% CO2 and subjected to a CellTiter 96 AQueous One solution cell proliferation assay (Promega). IC50 values calculated and analyzed using Prism 6 software (GraphPad).

BCR-ABL1 [3] = biological target: T1, BCR-ABL1 (Homo sapiens, UniProt P00519); assay: BCR-ABL1 degradation in primary patient LSCs (CD34+CD38-) by immunoblot; type: cell-based; design: induce degradation of both BCR-ABL1 and ABL1 in primary patient LSCs; BCR N-terminal portion (fusion partner, human BCR P11274); endogenous in cells; host or cells: primary CML patient CD34+/CD38- cells (patient 1); the other entry of the earlier key: BCR (P11274, Breakpoint cluster region protein); details: CD34+/CD38- cells, patient 1, overnight
Procedure: MNCs isolated from specimens via ficoll, then selected for CD34+ by MACs column. Frozen viables were thawed and cultured in IMDM+40 ug/mL LDL+20% FBS+100 uM BME overnight. Sorted using FACS Aria III, stained with CD34 (BD348801) and CD38 (BD555461).
Cells were lysed in Cell Signaling lysis buffer supplemented with PMSF and Complete Mini protease inhibitor tablets. Protein concentration assessed via BCA assay, ran on 4-15% tris-glycine polyacrylamide gel at 180V for 1 h, transferred overnight at 25V, blocked with 5% BSA in TBST for 1 h and incubated at 4 degree in following primary antibodies.
Target sequence in this assay (P00519 28-1130 limits assumed): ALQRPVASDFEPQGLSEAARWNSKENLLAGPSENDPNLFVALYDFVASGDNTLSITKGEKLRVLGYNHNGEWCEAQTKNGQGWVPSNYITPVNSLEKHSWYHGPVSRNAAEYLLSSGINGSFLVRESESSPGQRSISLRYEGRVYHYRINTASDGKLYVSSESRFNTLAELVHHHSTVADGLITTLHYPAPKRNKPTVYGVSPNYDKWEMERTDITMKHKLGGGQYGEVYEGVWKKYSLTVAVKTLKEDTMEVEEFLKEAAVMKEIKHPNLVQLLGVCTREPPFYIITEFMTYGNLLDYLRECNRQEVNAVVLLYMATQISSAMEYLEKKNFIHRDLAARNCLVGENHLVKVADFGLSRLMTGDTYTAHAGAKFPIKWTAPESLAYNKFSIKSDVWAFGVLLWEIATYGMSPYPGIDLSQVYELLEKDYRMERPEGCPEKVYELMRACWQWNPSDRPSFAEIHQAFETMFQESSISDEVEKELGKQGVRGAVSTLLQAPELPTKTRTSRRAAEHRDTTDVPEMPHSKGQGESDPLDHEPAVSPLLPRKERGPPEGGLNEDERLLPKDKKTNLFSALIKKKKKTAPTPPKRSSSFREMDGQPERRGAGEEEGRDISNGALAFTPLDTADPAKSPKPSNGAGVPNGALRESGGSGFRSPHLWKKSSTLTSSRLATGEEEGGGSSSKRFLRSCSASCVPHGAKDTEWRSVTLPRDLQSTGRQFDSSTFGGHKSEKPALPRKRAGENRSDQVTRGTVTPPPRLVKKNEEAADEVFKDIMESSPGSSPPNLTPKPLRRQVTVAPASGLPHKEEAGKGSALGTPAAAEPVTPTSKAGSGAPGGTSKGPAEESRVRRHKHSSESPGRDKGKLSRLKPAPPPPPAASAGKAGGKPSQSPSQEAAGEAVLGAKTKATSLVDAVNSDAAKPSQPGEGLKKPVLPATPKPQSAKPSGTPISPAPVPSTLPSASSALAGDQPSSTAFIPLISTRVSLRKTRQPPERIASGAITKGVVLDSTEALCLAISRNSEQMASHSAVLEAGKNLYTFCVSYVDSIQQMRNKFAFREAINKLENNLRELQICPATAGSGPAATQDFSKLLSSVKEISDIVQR

BCR-ABL1 [4] = biological target: T1, BCR-ABL1; assay: BCR-ABL1 / c-ABL1 degradation in K562 cells by immunoblot; type: cell-based; design: K562 cell lines were purchased from ATCC; BCR N-terminal portion (fusion partner, human BCR P11274); host or cells: K562; the other entry of the earlier key: BCR (P11274, Breakpoint cluster region protein); details: for DC50 / BCR-Abl and c-Abl levels on co-treatment with GMB-805 (Compound 19) / BCR-ABL1 and c-ABL1 levels on co-treatment with Compound 10: K562 cells; for BCR-Abl and c-Abl levels on co-treatment with GMB-805 (Compound 19): 1 μM GMB-805, 8 hours; for BCR-ABL1 and c-ABL1 levels on co-treatment with Compound 10: 8 hour treatment, compared to Compound 10 alone
Procedure: The cells were collected at 300 g for 3 min. […] The total protein concentrations were determined by Pierce BCA Protein Assay and 30-50 μg of protein was loaded onto 10% Tris-Glycine gels. After standard gel electrophoresis, the separated proteins were transferred to nitrocellulose by wet transfer. The immunoblots were then processed by standard procedures and incubated with the respective antibodies. Band intensities were quantified by Bio-Rad's Image Lab software.
Gels were transferred and then blocked in TBS-Tween buffer with 5% BSA. […] Following incubation with appropriate HRP-conjugated secondary antibodies, membranes were imaged on a BioRad ChemiDoc using BioRad Clarity Western ECL substrate and Thermo Super Signal West Femto Maximum Sensitivity substrate.
(§2) Following centrifugation at 13,000×g for 15 minutes at 4° C. to pellet insoluble materials, the protein concentrations of the supernatants were quantitated by BCA assay (Thermo Fisher Scientific). Protein samples were resolved by SDS-PAGE, transferred to nitrocellulose, blocked with 5% non-fat milk and probed with the marked antibodies. Immunoblots were developed using enhanced chemiluminescence and visualized using a Bio-Rad Chemi-Doc MP Imaging System with Image Lab v.5.2.1 software (Bio-Rad Laboratories).
Target sequence in this assay (P00519 with tags, fused parts or gaps): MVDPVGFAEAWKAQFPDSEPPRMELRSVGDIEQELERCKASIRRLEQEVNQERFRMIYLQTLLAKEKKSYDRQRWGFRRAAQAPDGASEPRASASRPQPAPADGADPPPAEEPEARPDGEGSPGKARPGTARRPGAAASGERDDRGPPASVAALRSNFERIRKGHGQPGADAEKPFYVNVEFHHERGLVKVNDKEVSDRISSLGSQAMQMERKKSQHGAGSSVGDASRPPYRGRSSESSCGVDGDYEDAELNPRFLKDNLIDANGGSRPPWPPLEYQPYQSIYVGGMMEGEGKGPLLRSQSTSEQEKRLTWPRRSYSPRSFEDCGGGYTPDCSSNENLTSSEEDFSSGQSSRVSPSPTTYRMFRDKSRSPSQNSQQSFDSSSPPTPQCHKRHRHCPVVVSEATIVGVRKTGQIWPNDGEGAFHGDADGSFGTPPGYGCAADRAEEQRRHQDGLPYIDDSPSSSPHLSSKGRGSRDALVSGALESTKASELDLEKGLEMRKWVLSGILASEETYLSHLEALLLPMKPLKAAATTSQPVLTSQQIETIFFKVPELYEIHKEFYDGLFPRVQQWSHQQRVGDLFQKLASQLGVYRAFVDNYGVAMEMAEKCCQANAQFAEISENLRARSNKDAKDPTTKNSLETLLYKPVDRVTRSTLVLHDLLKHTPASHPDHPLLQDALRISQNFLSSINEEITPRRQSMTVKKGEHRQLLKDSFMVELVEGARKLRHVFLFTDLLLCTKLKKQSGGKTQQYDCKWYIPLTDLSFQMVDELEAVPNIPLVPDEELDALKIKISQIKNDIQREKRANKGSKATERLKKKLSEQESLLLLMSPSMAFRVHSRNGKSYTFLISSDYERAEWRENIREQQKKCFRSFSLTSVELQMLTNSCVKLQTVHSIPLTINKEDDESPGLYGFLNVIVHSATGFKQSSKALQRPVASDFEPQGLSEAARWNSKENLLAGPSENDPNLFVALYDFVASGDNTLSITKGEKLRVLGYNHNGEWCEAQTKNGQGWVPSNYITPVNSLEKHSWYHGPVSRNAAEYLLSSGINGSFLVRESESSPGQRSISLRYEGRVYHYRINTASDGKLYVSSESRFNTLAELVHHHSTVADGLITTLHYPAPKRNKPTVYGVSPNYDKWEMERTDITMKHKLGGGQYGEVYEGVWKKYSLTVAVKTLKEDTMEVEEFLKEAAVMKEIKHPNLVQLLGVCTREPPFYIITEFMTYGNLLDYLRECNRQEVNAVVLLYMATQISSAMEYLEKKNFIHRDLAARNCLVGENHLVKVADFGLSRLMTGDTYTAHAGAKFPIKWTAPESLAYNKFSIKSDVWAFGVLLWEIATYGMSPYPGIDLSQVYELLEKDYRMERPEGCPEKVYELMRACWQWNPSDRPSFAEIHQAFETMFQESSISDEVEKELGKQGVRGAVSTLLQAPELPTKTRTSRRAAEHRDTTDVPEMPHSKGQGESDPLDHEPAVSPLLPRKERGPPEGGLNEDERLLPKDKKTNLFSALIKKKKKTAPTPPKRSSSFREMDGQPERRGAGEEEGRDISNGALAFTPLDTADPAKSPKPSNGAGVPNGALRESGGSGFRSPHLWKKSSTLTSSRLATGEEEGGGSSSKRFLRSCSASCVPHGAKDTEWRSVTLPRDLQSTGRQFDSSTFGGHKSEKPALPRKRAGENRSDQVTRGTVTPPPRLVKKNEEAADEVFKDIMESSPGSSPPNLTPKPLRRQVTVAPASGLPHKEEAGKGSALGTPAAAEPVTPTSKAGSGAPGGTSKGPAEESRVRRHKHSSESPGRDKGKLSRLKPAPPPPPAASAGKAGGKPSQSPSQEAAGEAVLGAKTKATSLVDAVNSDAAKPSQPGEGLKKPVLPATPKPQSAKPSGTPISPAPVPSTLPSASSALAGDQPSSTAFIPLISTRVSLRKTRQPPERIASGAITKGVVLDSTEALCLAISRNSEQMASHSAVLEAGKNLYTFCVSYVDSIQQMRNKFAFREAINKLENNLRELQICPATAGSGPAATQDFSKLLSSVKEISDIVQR

K562 cells [5] = assay: K562 cell proliferation assay; type: cell-based; details: Homo sapiens
Procedure: as §1

[6] = tested on: BCR-ABL1 transformed Ba/F3 cells; assay: Cell proliferation of BCR-ABL1 transformed Ba/F3 cells (MTS); type: cell-based, murine
Procedure: as §1
Plates were incubated at 37° C. for 72 h and analyzed by standard MTS-based colorimetric assay. Non-linear regression curve-fit analysis and IC50 calculations were performed using Graphpad Prism software.

[7] = tested on: Ba/F3 BCR-ABL1 G250E cells; assay: Cell proliferation of Ba/F3 cells expressing BCR-ABL1 G250E; type: cell-based, murine; details: versus wild-type BCR-ABL1
Procedure: as §1

BCR-ABL1 [8] = biological target: T1, BCR-ABL1; assay: Immunoblot of co-treatment with ponatinib in Ba/F3 BCR-ABL1 wild-type cells; type: cell-based, murine; design: BCR N-terminal portion (fusion partner, BCR P11274); expressed in transfected cells; the other entry of the earlier key: BCR (P11274, Breakpoint cluster region protein); details: overnight co-treatment with ponatinib
Source text: (§3) Samples were lysed in 1× Cell Signaling lysis buffer (#9803S) supplemented with PMSF and complete mini tablets (Sigma #11836153001). Lysates were quantified and separated on 4-15% Tris-glycine polyacrylamide gels. Gels were transferred and then blocked in TBS-Tween buffer with 5% BSA. The following primary antibodies were used: tABL, BD #554148 anti-mouse 1:400; c-ABL1, SantaCruz #24-11 anti-mouse 1:1000; B-tubulin, Millipore #05-66-MI anti-mouse 1:5000; pSTAT5, # CS9351S anti-rabbit 1:1000 pSTAT5, # CS4322 anti-rabbit 1:1000; pBCR-Abl, # CS2865 anti-rabbit 1:1000; pCRKL, # CS491 anti-rabbit 1:1000; pAKT, # CS4060 anti-rabbit 1:1000; pERK, # CS4695 anti-rabbit 1:1000; pSHP-2, Abcam #62322 anti-rabbit 1:1000; pGAB1, # CS3233 anti-rabbit 1:1000; pGAB2, # CS3882 anti-rabbit 1:1000; pSHC, # CS2434 anti-rabbit 1:1000; VHL, # CS68547 anti-rabbit 1:1000; pCRKL, # CS3181S anti-rabbit 1:1000. Following incubation with appropriate HRP-conjugated secondary antibodies, membranes were imaged on a BioRad ChemiDoc using BioRad Clarity Western ECL substrate and Thermo Super Signal West Femto Maximum Sensitivity substrate.
Target sequence in this assay (P00519 28-1130 limits assumed): as the sequence (P00519 28-1130 limits assumed) above

BCR-ABL1 [9] = biological target: T1, BCR-ABL1; assay: BCR-ABL1 signaling and scaffolding in K562 cells (RPPA, immunoblot); type: cell-based; design: K562 cell lines were purchased from ATCC; BCR N-terminal portion (fusion partner, human BCR P11274); host or cells: K562; the other entry of the earlier key: BCR (P11274, Breakpoint cluster region protein)
Source text: as §3
Target sequence in this assay (P00519 with tags, fused parts or gaps): as the sequence (P00519 with tags, fused parts or gaps) above
RPPA was performed in the MDACC CCSG core as described at http://www.mdanderson.org/education-and-research/resources-for-professionals/scientific-resources/core-facilities-and-services/functional-proteomics-rppa-core/index.html.
as §2, with “K562 cells were treated with the indicated concentrations of compound for 24 hours, washed with PBS and then harvested in lysis buffer (50 mM Tris (pH 7.4), 150 mM NaCl, 1 mM EDTA, 0.5% NP-40, phosphatase and protease inhibitors). Following” for “Following”

[10] = tested on: Ba/F3 BCR-ABL1 T315I cells; assay: Cell proliferation of Ba/F3 cells expressing BCR-ABL1 T315I; type: cell-based, murine; details: versus wild-type BCR-ABL1
Procedure: as §1

[11] = tested on: healthy donor CD34+ cells; assay: Effect on healthy donor CD34+ cells; type: cell-based, human; details: proliferation and apoptosis
K562 cells [12] = assay: K562 xenograft model in athymic mice; type: in vivo; details: 200 mg/kg IP once every 24 hours, day 4-6
Procedure: K562 cells were implanted subcutaneously into the flank of athymic mice and tumors were allowed to develop to approx. 200 mm^3. Animals were then randomised into treatment or vehicle groups on day 1. On day 4-6, animals were either treated with exemplary compound GMB-805 (Compound 19; 200 mg/kg) or vehicle control by IP injection once every 24 hours.
All in vivo experiments were conducted in accordance with institutional guidelines and were approved by Yale Institutional Animal Care & Use Committee. Mice were housed in pathogen-free animal facilities and with access to food and water ad libitum. K562 cells in Matrigel (Corning Life Sciences) were injected subcutaneously into the flank of athymic mice (Charles River) and allowed to proliferate until tumors reached −200 mm^3 at which point mice were randomized into treatment groups and treated I.P. with vehicle or exemplary compound once a day at 200 mg/kg for 3 days. Tumors were measured via caliper and volumes calculated following equation:
where V=volume, L=Length and W=Width

[13] = Pharmacokinetics in mouse; type: in vivo; details: 10 mg/kg IP
Procedure: The pharmacokinetic properties were determined at Pharmaron, China. The exemplary compound was formulated (in 5% EtOH & 5% Solutol HS15 in D5W(ESD-2)) and administered by intraperitoneal (I.P.) injection at a dosing level of 10 mg/kg. Plasma samples were collected at 0.25 hours, 0.5 hours, 1 hour, 2 hours, 4 hours, 8 hours, and 24 hours following dosing.
Acetonitrile was added to precipitate protein and the samples were vortexed for 30 second, centrifuged (4000 rpm, 15 minutes), diluted with water and the compound concentration determined by LC/MS/MS according to a standard curve.

Dmax (BCR-ABL1 [4]; K562, read-out: Dmax (%) [cell line]): 95% | DC50 (BCR-ABL1 [4]; read-out: DC50): 340 nM | IC50 (K562 cells [5]; FIG. 5B/D: K562 and Ba/F3 BCR-ABL1 cells, read-out: cell proliferation IC50): ~1000 nM | IC50 ([6]; Mus musculus, BaF3, single agent, 72 h (FIG. 6A), read-out: IC50, dose response titration): 1110 nM | reduction of the IC50 of imatinib by co-treatment ([6]; co-treatment of imatinib with 2.5 μM Compound 10): ~3 fold | total ABL1 protein by RPPA (BCR-ABL1 [9]; K562, 5 μM, 8 h): showed a decrease in total ABL1 protein
Compound: Cc1ncsc1-c1ccc(CNC(=O)[C@@H]2C[C@@H](O)CN2C(=O)[C@@H](NC(=O)COCCOc2ccc(-c3cc(Nc4ccc(OC(F)(F)F)cc4)ncn3)cc2)C(C)(C)C)cc1 [Compound 10]
apoptosis in sorted progenitor (CD34+CD38+) and stem (CD34+CD38-) cells [1]: induced apoptosis in the progenitor cells and to a lesser extent in the stem cells | potency at inhibiting proliferation relative to Compound 14 [2]: greater than 2 fold | degradation of BCR-ABL1 and ABL1 (BCR-ABL1 [3]): able to induce degradation of both BCR-ABL1 and ABL1 | degradation of BCR-ABL1 and c-ABL1 (BCR-ABL1 [4]; K562 (FIG. 5A) and Ba/F3 (FIG. 5C) cells, dose- and time-dependent): induce the degradation of BCR-ABL1 and c-ABL1 | anti-proliferative activity against G250E mutant [7]: enhanced anti-proliferative activity | effect of co-treatment with ponatinib (immunoblot) (BCR-ABL1 [8]): enhanced the ability of Compound 10 to induce degradation | phosphorylation of GAB2 and SHC (BCR-ABL1 [9]; K562, full serum (10% FBS)): able to reduce phosphorylation of GAB2 and SHC | kinase activity of BCR-ABL1 (pBCR-ABL1 Tyr412, pSTAT-5) (BCR-ABL1 [9]; K562, immunoblot, 8 h and 24 h): able to inhibit the kinase activity of BCR-ABL1 | phosphorylation of GAB2, SHC and STAT5 (BCR-ABL1 [9]; K562, serum-free): able to inhibit phosphorylation of GAB2 and SHC, as well as STAT5 | effect of T315I mutation on potency [10]: had little effect on the potency of Compound 10

Compound: Cc1ccc(NC(=O)c2ccc(CN3CCN(C)CC3)cc2)cc1Nc1nccc(-c2cccnc2)n1 [imatinib]
effect on healthy donor CD34+ cells [11]: had no effect on healthy donor CD34+ cells

BCR-Abl and c-Abl levels on co-treatment with GMB-805 (Compound 19) (BCR-ABL1 [4]): able to rescue protein levels
Compound: NS(=O)(=O)OC[C@@H]1C[C@@H](n2ccc3c(N[C@H]4CCc5ccccc54)ncnc32)C[C@@H]1O [MLN-4924, reference compound]
BCR-ABL1 and c-ABL1 levels on co-treatment with Compound 10 (BCR-ABL1 [4]): inhibited the degradation of BCR-ABL1 and ABL1

Compound: Cc1ncsc1-c1ccc(CNC(=O)[C@@H]2C[C@@H](O)CN2C(=O)[C@@H](NC(=O)COCCNc2ncc(C(=O)Nc3ccc(OC(F)(F)Cl)cc3)cc2-c2ccn[nH]2)C(C)(C)C)cc1 [Compound 19]
DC50 (BCR-ABL1 [4]; extended dose response, 24 hours (FIG. 16A), read-out: DC50 (concentration at which half maximal degradation is observed)): 30 nM | toxicity or weight loss (K562 cells [12]): no toxicity or weight loss was observed; also recorded: induced no weight loss | tumor volume (K562 cells [12]): no significant increase in tumor volume | IC50 (K562 cells [5]; K562 (FIG. 16B), read-out: antiproliferative activity IC50): 169 nM | Cmax [13]: well over above both the DC50 and IC50

Compound: CC[C@H](C)[C@H](NC(=O)[C@H]([C@@H](C)CC)N(C)C(C)=O)C(=O)N[C@H](C(=O)N[C@@H](CC(C)C)C(=O)[C@@]1(C)CO1)[C@@H](C)O [epoxomicin, reference compound]
BCR-Abl and c-Abl levels on co-treatment with GMB-805 (Compound 19) (BCR-ABL1 [4]): restored protein concentration back to untreated levels | BCR-ABL1 and c-ABL1 levels on co-treatment with Compound 10 (BCR-ABL1 [4]): restored the levels of BCR-ABL1 and c-ABL1
